In patent US20110166206A1, “UBIQUILIN REGULATION OF PRESENILIN ENDOPROTEOLYSIS, AND SUPPRESSION OF POLYGLUTAMINE-INDUCED TOXICITY IN CELLS” (UNIVERSITY OF MARYLAND BIOTECHNOLOGY INSTITUTE, priority 2005, published 2011):

Assays:
Type in all cases: cell-based
[1] = system: mouse cortical neurons; test: Ubiquilin-1 overexpression in mouse primary neuronal cultures transfected with GFP-HttPolyQ74
Experimental: FIG. 10. […] Mouse cortical neurons (14 days in vitro) were transiently transfected with pEGFP (3 μg each well, a), or pEGFP-HttExon-1polyQ(74) alone (3 μg each well, b), or cotransfected with both pEGFP-HttExon-1polyQ(74) and ubiquilin-1 cDNA with the ratio indicated (3 μg of pEGFP-HttExon-1polyQ(74) plus 1.5 μg or 3 μg of ubiquilin-1 cDNA; c, d).
B. Overexpression of ubiquilin-1 reduces formation of GFP-HttPolyQ(74) inclusions in cultured mouse neurons. […] Overexpression of ubiquilin-1 reduces GFP-HttPolyQ(74)-induced cell death in cultured mouse neurons. 30 hours following transfection, the cultures were stained with both Hoechst 33342 and propidium iodide (PI) and then subjected for fluorescent microscopy analysis. PI positively stained cells were treated as dead cells and only the green (GFP-positive) cells were included in the cell death analysis. Results are mean±SD.
Next it was investigated whether the modulation of polyglutamine aggregation and toxicity by ubiquilin-1 overexpression is manifested in neuronal cells, which might be more relevant in terms of controlling neurodegeneration in HD and related disorders. […] The insolubility of the Htt protein was not measured in these cells due difficulties in preparing reliable soluble and insoluble material from neurons and because of a limitation in the number for cells required for the assay.

[2] = system: HeLa cells; test: Co-transfection of ubiquilin-1 cDNA with GFP-Htt Exon 1 Q74 construct in HeLa cells
Experimental: FIG. 9. […] Immunoblots showing GFP-immunoreactivity after biochemical fractionation of parallel sets of HeLa cells transfected with the constructs described in (A) into Triton-X100 soluble and pellet fractions. • D. Densitometric quantification of anti-GFP immunoreactive bands depicting the relative amount of GFP-irnmunoreaction found in the pellet compared to that the total (soluble and pellet fractions combined).
HeLa cells were grown in DME supplemented with 10% FBS. Cells were transiently transfected with plasmid DNA using by calcium phosphate coprecipitation. Stable HeLa cell lines were isolated by cotransfection of EGFP expression constructs with a pNeo plasmid and selection with G418. Stable cell lines were identified by GFP-fluorescence.
Cell death was monitored either through examination of the nuclear morphology observed after Hoechst 33342 (1 μg/ml) staining, or through detecting the membrane selective permeability following 3 μM of propidium iodide (PI) staining. Terminal deoxynucleotidyl Transferase Biotin-dUTP Nick End Labeling (TUNEL) staining was performed with DeadEnd Colorimetric TUNEL staining kits purchased from Promega. For detecting caspase-3 activation, two methods were used. Cell lysates were separated by SDS-PAGE and probed with an antibody against the cleaved substrate for caspase-3. Alternatively, caspase activity was also detected by flurogenic techniques by incubating the cell lysates with a flurogenic caspase-3 substrate, AC-DEVD-AMC in a 96-well plate. After incubation, the cleaved free AMC was scanned by a fluorescence multi-well plate reader (SOSTmax, Sunnyvale, CA) with an excitation at 380 nm (excitation) and emission at 460 nm (emission).
Having established that expression of GFP-tagged Htt-Exon1-polyglutamine fusion proteins in HeLa cells caused a polyglutamine-number dependent increase in intracellular inclusion formation, Triton-X100 insolubility, and cell death, it was necessary to examined what effect overexpression of ubiquilin-1 has on these properties. […]

[3] = system: PS1 and PS2 NTF and CTF; test: MG132 treatment of UBQLN-transfected PS1 and PS2 stable cell lines, fragment immunoblot; settings: UBQLN1 transfected vs untransfected, MG132
Experimental: FIG. 3. […] (A) PS1 cells lines that were either not induced (lanes 1 and 3) or induced with PonA (lanes 2 and 4) and either left untransfected (lanes 1 and 2) or transfected with UBQLN1 expression plasmids (lanes 3 and 4) were treated for 7 h with MG132 after which protein lysates were collected and analyzed by immunoblotting. […] For clarification, if UBQLN did increase the turnover rate then by blocking degradation, turnover would be stopped and PS fragment levels would be similar, or increase, relative to that of untransfected cells. […] Densitometric analysis was used to quantify the extent of reduction. Each experiment was repeated more than three times and similar trends were observed.
(B) Same experiment and results as described in (A) except that PS2 inducible cell lines were used to examine PS2 NTF and CTF levels. […] UBQLN exerts greater effects on PS2 probably because it interacts more strongly with PS2, see [43].
HeLa and HEK293 cells were grown in DMEM supplemented with 10% FBS. PS1 and S2 inducible cell lines were generated by transfection of the pERV-expressing HEK293 cell line (Stratgene, IaIolla, Calif.) with FL human PS2 cDNA under the control of ponasteroneA (PonA)-inducible cassette in plasmid pEGSH (Stratagene). Stable integration of the pEGSH plasmid was achieved by selection for hygromycin resistance. […]

For “UBQLN1: PS-interacting protein ubiquilin-1, overexpressed in cells from a cDNA expression plasmid”, the inclusion formation [1] was “decreased inclusion formation”, the neuronal cell death [1] was “decreased GFP-HttPolyQ74-induced neuronal cell death” and the “GFP-HttPolyQ74 fusion protein accumulation” value ([2]; anti-GFP immunoblot) was “dose-dependent increase in accumulation”. For the same substance, the “Triton-X100 solubility of GFP-HttPolyQ74 fusion protein” value ([2]; biochemical fractionation) was “a greater proportion of the GFP-HttPolyQ74-fusion protein remained soluble”, the cell death ([2]; increasing amounts of ubiquilin-1 cDNA vs GFP-Htt Exon-1PolyQ74 alone) was “dose-dependent decrease in cell death” and the “PS1 and PS2 NTF and CTF levels after MG132 treatment” value [3] was “remained reduced”.
